Laboratory results published in patent US7005257B1, “Detection of antibiotic resistance in microorganisms” (priority 1998, dated 2006).
Converted amounts (≈) assume the structure as drawn. Where two headings read alike, the source gives them in different places.

Columns and labels:
E. coli = tested on: E. coli; parameters: key: HS, hypersensitive; R, resistant; S, sensitive; conditions: cited from earlier work
Helicobacter = conditions: cited from earlier work
H. pylori [1] = tested on: H. pylori; parameters: key: HS, hypersensitive; R, resistant; S, sensitive; conditions: cited from earlier work
P. acnes = tested on: P. acnes; parameters: key: HS, hypersensitive; R, resistant; S, sensitive; conditions: cited from earlier work
H. pylori [2] = assay: MIC value of conventionally characterized H. pylori isolates (clarithromycin); format: cell-based, Helicobacter pylori; parameters: MIC value: unit not given beside the values; conditions: for MIC: Helicobacter pylori
Description: Evaluating the MIC value determination by in-situ hybridization using conventionally characterized H. pylori isolates.

M. intracellulare = tested on: M. intracellulare; parameters: key: HS, hypersensitive; R, resistant; S, sensitive; conditions: cited from earlier work
M. pneumoniae = tested on: M. pneumoniae; parameters: key: HS, hypersensitive; R, resistant; S, sensitive; conditions: cited from earlier work
23S rRNA = conditions: protein-free 23S rRNA extracts (Noller et al., 1992); cited from earlier work

CCC[C@@H]1C[C@@H](C(=O)N[C@@H]([C@H]2O[C@H](SC)[C@H](O)[C@@H](O)[C@H]2O)[C@@H](C)O)N(C)C1 [lincomycin]
Phenotype (E. coli; 23S rRNA mutation C2611U): Ery^RLin^RSgb^R

O=C([O-])c1ccccc1[O-].[Bi+3].[OH-] [BSS]
Effect on Helicobacter (Helicobacter): bactericidal effect

O=C(N[C@H](CO)[C@H](O)c1ccc([N+](=O)[O-])cc1)C(Cl)Cl [chloramphenicol]
Phenotype (E. coli; 23S rRNA mutation A2503C): Cam^R | Phenotype (E. coli; 23S rRNA mutation G2032A): R | Phenotype (E. coli; 23S rRNA mutation G2032C): S | Phenotype (E. coli; 23S rRNA mutation G2032U): S | Phenotype (E. coli; 23S rRNA mutation G2057A): Ery^R, Cam^R

CC[C@H]1OC(=O)[C@H](C)[C@@H](O[C@H]2C[C@@](C)(OC)[C@@H](O)[C@H](C)O2)[C@H](C)[C@@H](O[C@@H]2O[C@H](C)C[C@H](N(C)C)[C@H]2O)[C@](C)(OC)C[C@@H](C)C(=O)[C@H](C)[C@@H](O)[C@]1(C)O [clarithromycin]
Phenotype (H. pylori [1]; 23S rRNA mutation A2053C): Cla^R | Phenotype (H. pylori [1]; 23S rRNA mutation A2053G): Cla^R | Phenotype (H. pylori [1]; 23S rRNA mutation A2059G): Cla^R | Phenotype (P. acnes; 23S rRNA mutation A2058G): Cla^R, Ery^R | Phenotype (P. acnes; 23S rRNA mutation A2059G): Cla^R, Ery^R | Phenotype (P. acnes; 23S rRNA mutation G2057A): Cla^R, Ery^R | MIC value (H. pylori [2]; H. pylori strain FD591): 16/32 | MIC (H. pylori [2]; H. pylori strain HH531): 48 mg/L (≈ 64.2 µM) | MIC (H. pylori [2]; H. pylori strain KJ472): 16 mg/L (≈ 21.4 µM) | MIC (H. pylori [2]; H. pylori strain MC028): 24 mg/L (≈ 32.1 µM) | MIC (H. pylori [2]; H. pylori strain MC132): 12 mg/L (≈ 16 µM) | MIC (H. pylori [2]; H. pylori strain MC141): > 256 mg/L | MIC (H. pylori [2]; H. pylori strain MPS1726): > 256 mg/L | MIC (H. pylori [2]; H. pylori strain MPS1765): > 256 mg/L | MIC (H. pylori [2]; H. pylori strain MPS3137): 96 mg/L (≈ 128 µM) | MIC (H. pylori [2]; H. pylori strain MPS3286): > 256 mg/L | Phenotype (M. intracellulare; 23S rRNA mutation A2053C): Cla^R | Phenotype (M. intracellulare; 23S rRNA mutation A2058G): Cla^R | Phenotype (M. intracellulare; 23S rRNA mutation A2058U): Cla^R

CC[C@H]1OC(=O)[C@H](C)[C@@H](O[C@H]2C[C@@](C)(OC)[C@@H](O)[C@H](C)O2)[C@H](C)[C@@H](O[C@@H]2O[C@H](C)C[C@H](N(C)C)[C@H]2O)[C@](C)(O)C[C@@H](C)C(=O)[C@H](C)[C@@H](O)[C@]1(C)O [erythromycin]
Phenotype (E. coli; 23S rRNA mutation A2058G): Ery^R | Phenotype (E. coli; 23S rRNA mutation A2058U): Ery^R | Phenotype (E. coli; 23S rRNA mutation C2611U): Ery^RLin^RSgb^R | Phenotype (E. coli; 23S rRNA mutation G2032A): HS | Phenotype (E. coli; 23S rRNA mutation G2032C): HS | Phenotype (E. coli; 23S rRNA mutation G2032U): HS | Phenotype (E. coli; 23S rRNA mutation G2057A): Ery^R, Cam^R | Phenotype (P. acnes; 23S rRNA mutation A2058G): Cla^R, Ery^R | Phenotype (P. acnes; 23S rRNA mutation A2059G): Cla^R, Ery^R | Phenotype (P. acnes; 23S rRNA mutation G2057A): Cla^R, Ery^R | Phenotype (M. pneumoniae; 23S rRNA mutation A2058G): Ery^R | Phenotype (M. pneumoniae; 23S rRNA mutation A2059G): Ery^R

CO[C@@H]1[C@@H](O[C@@H]2O[C@H](C)[C@@H](O[C@H]3C[C@@](C)(O)[C@@H](OC(=O)CC(C)C)[C@H](C)O3)[C@H](N(C)C)[C@H]2O)[C@@H](CC=O)C[C@@H](C)C(=O)/C=C/[C@@H]2O[C@@H]2C[C@@H](C)OC(=O)C[C@H]1OC(C)=O [carbomycin]
Inhibition of in-vitro peptidyltransferase activity (23S rRNA): able to inhibit
